Read-outs that look alike come from different tables or passages of the source. Bridge positions count the residues as written; N and C are the ends. Ends that are not written are not given here. Peptide text beside a SMILES is read from it.
Tests used:
human Daudi cells [1] = assay type: cell-based
[2] = test system: dopaminergic (TH^+) neurons in midbrain cultures; assay: MPP+ intoxication model: DA (TH+) cell survival in midbrain cultures; assay type: cell-based, Wistar rat; settings: MPP^+ in vitro model; antibodies 1 µg/mL, genistein 10 nM, vacuolin-1 10 µM, endosidin2 40 µM
Experimental: Animals were treated in accordance with the Guide for the Care and Use of Laboratory Animals (National Research Council, 1996), European Directive 86/609, and the guidelines of the local institutional animal care and use committee. Cultures were prepared from the ventral mesencephalon of gestational age 15.5 Wistar rat embryos (Janvier Breeding Center, Le Genest St Isle, France). Dissociated cells in suspension obtained by mechanical trituration of midbrain tissue pieces were seeded at a density of 1.2-1.5×10^5 cells/cm^2 onto tissue culture supports precoated with 1 mg/mL polyethylenimine diluted in borate buffer pH 8.3 as described (Michel et al., 1997. J Neurochem. 69(4):1499-507). The cultures were then maintained in N5 medium supplemented with 5 mM glucose, 5 % horse serum, and 0.5 % fetal calf serum, except for the first 3 DIV, when the concentration of fetal calf serum was 2.5% to favor initial maturation of the cultures (Guerreiro et al., 2008. Mol Pharmacol. 74(4):980-9). They were fed daily by replacing 70% of the medium. Routinely, mesencephalic cultures were established on Nunc 24-well culture plates (Thermofischer Scientific, Rochester, NY). Note that these cultures contain tyrosine hydroxylase (TH)^+ neurons that were exclusively dopaminergic (Traver et al., 2006. Mol Pharmacol. 70(1):30-40). TH^+ neurons represented approximately 1-2% of the total number of neuronal cells present in these cultures. The evaluation of the survival of DA neurons was performed by counting cells immunopositive for TH as described (Toulorge et al., 2011. Faseb J. 25(8):2563-73).
Treatments with MPP^+ were performed in cultures where the spontaneous death process was prevented by long-term exposure to depolarizing concentrations of K^+ (30 mM), in the presence of the glutamate receptor antagonist MK801 (5 µM) to prevent unwanted excitotoxic insults as described previously (Douhou et al., 2001. J Neurochem. 78(1):163-74). Treatments with MPP^+ and potential neuroprotective molecules were carried out between 5 and 7 DIV.
The cultures were fixed for 12 min using 4 % formaldehyde in Dulbecco’s phosphate-buffered saline (PBS), then washed twice with PBS before an incubation step at 4° C. for 24 hours with the following antibodies. A monoclonal anti-TH antibody diluted 1/5000 (ImmunoStar, Inc., Hudson, WI) was used to assess the survival of DA neurons. Antibody was diluted in PBS containing 0.2 % Triton X-100. Detection of the primary antibodies was performed with an Alexa Fluor-488 conjugate of an anti-mouse IgG antibody.
For this purpose, spontaneously occurring DA cell death was prevented by a treatment combining depolarizing concentrations of K^+ (30 mM) and MK801 (5 µM), a glutamate receptor antagonist used to prevent unwanted excitotoxic insult. The cultures were then exposed to 3 µM MPP^+ between 5 and 7 days in vitro (DIV) to achieve a loss of approximately 50% of DA neurons.

6-OHDA mouse model = assay: 6-OHDA mouse model, number of DA (TH+) neurons in the substantia nigra pars compacta; assay type: in vivo, mice; settings: 15 mg/kg iv one day before 6-OHDA icv injection
Experimental: Animals were treated in accordance with the Guide for the Care and Use of Laboratory Animals (National Research Council, 1996), with the European Directive 2010/63/EU, and the guidelines of the local institutional animal care and use committee. For all studies, 8 to 10 weeks-old male C57B1/6 mice (Janvier, France) were used. They were maintained on a 12:12 hours light/dark cycle with lights on at 8 a.m. The room temperature was kept at 20° C., with free access to standard diet and tap water.
Two in vivo mouse models were used: the 6-OHDA mouse model and the MPTP mouse model. For the 6-OHDA mouse model, the intoxication protocol was based on the unilateral stereotaxic intrastriatal injection of 6-OHDA in the right striatum. Intracerebral or intravenous injections of treatments were made either the day before the surgical stereotaxic procedure, concomitantly with 6-OHDA during the surgical stereotaxic procedure, or two days after 6-OHDA injection. Animals were sacrificed 8 days after the surgical stereotaxic procedure.
For unilateral 6-OHDA mouse model, animals were anesthetized using Chloral hydrate (400 mg/kg, i.p.) and placed into a stereotactic frame adapted to mice. The injection was performed using a Hamilton syringe at the following coordinates: AP: + […] (corresponding to the atlas of Franklin and Paxinos, 1997). […]

DSS mouse model = assay: DSS-induced colitis mouse model, colon length; assay type: in vivo, mice
Experimental: (§1) Experimental colitis was induced in mice by giving drinking water ad libitum containing 3 % (w/v) DSS for 5 days, while control mice received tap water only. Test compounds were intravenously administered (15 mg/kg) when DSS treatment began. Mice were sacrificed 9 days after the beginning of DSS treatment.
Administration of DSS causes human ulcerative colitis-like pathologies due to its toxicity to colonic epithelial cells, which results in compromised mucosal barrier function. Clinical observations similar to human pathologies, such as weight loss, diarrhea and occult blood in stool, are commonly observed in the DSS model. Moreover, diminution of the colon’s length is characteristic of this model.
as §1, with “3%” for “3 %”, “compounds (SEQ ID NO: 6 and SEQ ID NO: 10)” for “compounds”, “subcutaneously” for “intravenously”, “everyday (300 µg/kg) starting” for “(15 mg/kg)”

human Daudi cells [3] = assay type: cell-based; settings: glucose-deprived cells, 1 hour treatment (1 µM per figure legends; 10 µg/mL per method), 2-NBDG 500 µM 30 minutes
Experimental: Human Daudi cells cultured in 75 cm^2 flask were centrifuged ( 300 g, 3 minutes), resuspended in warmed PBS supplemented with 10 % goat serum and seeded in 96-well microplate ( 100 µL, 2 × 10^6 cells/mL) in order to deprive cells from glucose. Cells were treated with test treatments (10 µg/mL) for 1 hour (37° C.). Cells were then incubated with 500 µM of the fluorescent and non-metabolizable glucose analog 2-NBDG ((2R,3R,4S,5R)-3,4,5,6-tetrahydroxy-2-[(7-nitro-2,1,3-benzoxadiazol-4-yl)amino]hexanal; Thermo Fischer) for 30 minutes at 37° C., and washed 4 times with PBS containing 10 % of goat serum. Images were acquired using a Zeiss microscope (20 X) and the relative fluorescence intensity of 30 cells was determined using Fiji.
To determine the effect of test compounds on glucose uptake, we developed a cellular model based on the use of human Daudi cells, a cell line known to strongly express CD38.
Human Daudi cells were plated in culture medium deprived of glucose and exposed to test treatments (peptides of Table 6) for 1 hour and then incubated with the non-metabolizable, fluorescent glucose 2-NBDG. After 30 minutes of incubation, cells were washed and imaged using a microscope. Fluorescence levels were determined using Fiji.

CC[C@H](C)[C@@H]1NC(=O)[C@H](C(C)C)NC(=O)[C@H](Cc2ccccc2)NC(=O)[C@H](CC(N)=O)NC(=O)[C@H](CCC(N)=O)NC(=O)[C@H](CC(=O)O)NC(=O)[C@H](CCCNC(=N)N)NC(=O)[C@@H](N)CSSC[C@@H](C(=O)O)NC(=O)[C@H](CCC(N)=O)NC(=O)[C@H](CCC(=O)O)NC(=O)[C@H](CCC(=O)O)NC(=O)[C@H](C(C)C)NC(=O)[C@@H]2CCCN2C(=O)[C@H](Cc2ccccc2)NC(=O)[C@H](CCC(=O)O)NC(=O)[C@H](CC(C)C)NC1=O [SEQ ID NO: 9] (H-CRDQNFVILEFPVEEQC-OH; disulfide 1-17 (inferred); N-terminus and C-terminus assumed)
EC50 (human Daudi cells [1]; 1 h): ~0.1 nM

COc1cc(/C=N/NC(=O)c2cccc(F)c2)cc(I)c1O [endosidin2]
effect on the neuroprotective effect of agonistic anti-CD38 antibody clone HB7 (1 µg/mL) [2]: antagonized | effect on the neuroprotective effect of sCD31 (1 µg/mL) [2]: antagonized

O=c1c(-c2ccc(O)cc2)coc2cc(O)cc(O)c12 [genistein]
effect on the neuroprotective effect of agonistic anti-CD38 antibody clone HB7 (1 µg/mL) [2]: antagonized | effect on the neuroprotective effect of sCD31 (1 µg/mL) [2]: antagonized

Ic1cccc(/C=N/Nc2nc(N3CCOCC3)nc(N(c3ccccc3)c3ccccc3)n2)c1 [vacuolin-1]
effect on the neuroprotective effect of agonistic anti-CD38 antibody clone HB7 (1 µg/mL) [2]: antagonized | effect on the neuroprotective effect of sCD31 (1 µg/mL) [2]: antagonized

Daratumumab
neuroprotective effect on DA neurons (6-OHDA mouse model): failed to demonstrate neuroprotective activity

NSRDQNFVILEFPVE [SEQ ID NO: 6]
colon length (DSS mouse model; 300 µg/kg s.c. daily from start of DSS, 3% DSS 5 days, sacrifice day 9): statistically significant improvement in colon length | potency on colon length compared with SEQ ID NO: 10 (DSS mouse model; same dosing regimen, 300 µg/kg s.c. daily): less potent than SEQ ID NO: 10 | EC50 (human Daudi cells [1]; 1 h): ~13 nM

human sCD31: soluble form of human CD31, amino acid residues 35 to 493 of SEQ ID NO: 1
glucose uptake (2-NBDG fluorescence) (human Daudi cells [3]): increased glucose uptake to similar levels to that observed in the presence of insulin | EC50 (human Daudi cells [1]; dose response, 2-NBDG fluorescence, read-out: EC50 on glucose uptake): ~5 nM

— patent US20230357354A1, “CD38-BINDING CD31 PEPTIDES AND USES THEREOF” (ENCEFA, priority 2020, published 2023)
